ChEMBL document CHEMBL3046293, “Fungicidal Activities of -Methoxyphenylacetic Acid Derivatives” (2002)

Experiments:
Type in all cases: functional
Botrytis cinerea [1] = assay: Fungicidal activity against Botryotinia fuckeliana assessed as cucumber gray mold disease control at 125 ppm treated 24 hr before inoculation by preventive manner
Podosphaera fuliginea [2] = assay: Fungicidal activity against Podosphaera fuliginea assessed as cucumber powdery mildew disease control at 31.3 ppm treated 24 hr before inoculation by preventive manner
Pyricularia oryzae [3] = assay: Fungicidal activity against Magnaporthe oryzae Cav. race 003 assessed as rice blast disease control at 500 ppm treated 24 hr before inoculation by preventive manner
Pyricularia oryzae [4] = assay: Fungicidal activity against Magnaporthe oryzae Cav. race 003 assessed as rice blast disease control at 2 ppm foliar application for 24 hr before inoculation by preventive manner
Pyricularia oryzae [5] = assay: Fungicidal activity against Magnaporthe oryzae Cav. race 003 assessed as rice blast disease control at 31.3 ppm foliar application for 24 hr before inoculation by preventive manner
Pyricularia oryzae [6] = assay: Fungicidal activity against Magnaporthe oryzae Cav. race 003 assessed as rice blast disease control at 125 ppm foliar application for 24 hr before inoculation by preventive manner
Pyricularia oryzae [7] = assay: Fungicidal activity against Magnaporthe oryzae Cav. race 003 assessed as rice blast disease control at 7.8 ppm foliar application for 24 hr before inoculation by preventive manner
Botrytis cinerea [8] = assay: Fungicidal activity against Botryotinia fuckeliana assessed as cucumber gray mold disease control at 7.8 ppm foliar application 24 hr before inoculation by preventive manner
Botrytis cinerea [9] = assay: Fungicidal activity against Botryotinia fuckeliana assessed as cucumber gray mold disease control at 31.3 ppm foliar application 24 hr after inoculation by curative manner
Botrytis cinerea [10] = assay: Fungicidal activity against Botryotinia fuckeliana assessed as cucumber gray mold disease control at 2 ppm foliar application 24 hr before inoculation by preventive manner
Botrytis cinerea [11] = assay: Fungicidal activity against Botryotinia fuckeliana assessed as cucumber gray mold disease control at 31.3 ppm foliar application 24 hr before inoculation by preventive manner
Botrytis cinerea [12] = assay: Fungicidal activity against Botryotinia fuckeliana assessed as cucumber gray mold disease control at 125 ppm foliar application 24 hr after inoculation by curative manner
Botrytis cinerea [13] = assay: Fungicidal activity against Botryotinia fuckeliana assessed as cucumber gray mold disease control at 7.8 ppm foliar application 24 hr after inoculation by curative manner
Botrytis cinerea [14] = assay: Fungicidal activity against Botryotinia fuckeliana assessed as cucumber gray mold disease control at 2 ppm foliar application 24 hr after inoculation by curative manner
Botrytis cinerea [15] = assay: Fungicidal activity against Botryotinia fuckeliana assessed as cucumber gray mold disease control at 125 ppm foliar application 24 hr before inoculation by preventive manner
[16] = tested on: Pseudoperonospora cubensis; assay: Fungicidal activity against Pseudoperonospora cubensis assessed as cucumber downy mildew disease control at 125 ppm foliar application 24 hr before inoculation onto the abaxial(treated) surface of leaf by preventive manner
Blumeria graminis [17] = assay: Fungicidal activity against Blumeria graminis f. sp. tritici assessed as wheat powdery mildew disease control at 7.8 ppm foliar application for 24 hr before inoculation by preventive manner
Thanatephorus cucumeris [18] = assay: Fungicidal activity against Thanatephorus cucumeris assessed as rice sheath blight disease control at 31.3 ppm foliar application for 24 hr after inoculation by curative manner
[19] = tested on: Pseudoperonospora cubensis; assay: Fungicidal activity against Pseudoperonospora cubensis assessed as cucumber downy mildew disease control at 31.3 ppm foliar application 24 hr after inoculation by curative manner
Podosphaera fuliginea [20] = assay: Fungicidal activity against Podosphaera fuliginea assessed as cucumber powdery mildew control at 0.125 ppm foliar application 24 hr after inoculation by curative manner
Blumeria graminis [21] = assay: Fungicidal activity against Blumeria graminis f. sp. tritici assessed as wheat powdery mildew disease control at 125 ppm foliar application for 24 hr before inoculation by preventive manner
Blumeria graminis [22] = assay: Fungicidal activity against Blumeria graminis f. sp. tritici assessed as wheat powdery mildew disease control at 2 ppm foliar application for 24 hr before inoculation by preventive manner
Blumeria graminis [23] = assay: Fungicidal activity against Blumeria graminis f. sp. tritici assessed as wheat powdery mildew disease control at 31.3 ppm foliar application for 24 hr before inoculation by preventive manner
Podosphaera fuliginea [24] = assay: Fungicidal activity against Podosphaera fuliginea assessed as cucumber powdery mildew control at 0.125 ppm foliar application 24 hr before inoculation by preventive manner
[25] = tested on: Pseudoperonospora cubensis; assay: Fungicidal activity against Pseudoperonospora cubensis assessed as cucumber downy mildew disease control at 125 ppm foliar application 24 hr before inoculation onto the adaxial(treated) surface of leaf by preventive manner
[26] = tested on: Pseudoperonospora cubensis; assay: Fungicidal activity against Pseudoperonospora cubensis assessed as cucumber downy mildew disease control at 2 ppm foliar application 24 hr after inoculation by curative manner
Thanatephorus cucumeris [27] = assay: Fungicidal activity against Thanatephorus cucumeris assessed as rice sheath blight disease control at 31.3 ppm foliar application for 24 hr before inoculation by preventive manner
Thanatephorus cucumeris [28] = assay: Fungicidal activity against Thanatephorus cucumeris assessed as rice sheath blight disease control at 7.8 ppm foliar application for 24 hr before inoculation by preventive manner
Podosphaera fuliginea [29] = assay: Fungicidal activity against Podosphaera fuliginea assessed as cucumber powdery mildew control at 7.8 ppm foliar application 24 hr before inoculation by preventive manner
Podosphaera fuliginea [30] = assay: Fungicidal activity against Podosphaera fuliginea assessed as cucumber powdery mildew control at 0.5 ppm foliar application 24 hr before inoculation by preventive manner
Thanatephorus cucumeris [31] = assay: Fungicidal activity against Thanatephorus cucumeris assessed as rice sheath blight disease control at 7.8 ppm foliar application for 24 hr after inoculation by curative manner
Thanatephorus cucumeris [32] = assay: Fungicidal activity against Thanatephorus cucumeris assessed as rice sheath blight disease control at 2 ppm foliar application for 24 hr before inoculation by preventive manner
Podosphaera fuliginea [33] = assay: Fungicidal activity against Podosphaera fuliginea assessed as cucumber powdery mildew control at 2 ppm foliar application 24 hr after inoculation by curative manner
[34] = tested on: Pseudoperonospora cubensis; assay: Fungicidal activity against Pseudoperonospora cubensis assessed as cucumber downy mildew disease control at 2 ppm foliar application 24 hr before inoculation onto the adaxial(treated) surface of leaf by preventive manner
Blumeria graminis [35] = assay: Fungicidal activity against Blumeria graminis f. sp. tritici assessed as wheat powdery mildew disease control at 125 ppm foliar application for 24 hr after inoculation by curative manner
Podosphaera fuliginea [36] = assay: Fungicidal activity against Podosphaera fuliginea assessed as cucumber powdery mildew control at 0.5 ppm foliar application 24 hr after inoculation by curative manner
[37] = tested on: Pseudoperonospora cubensis; assay: Fungicidal activity against Pseudoperonospora cubensis assessed as cucumber downy mildew disease control at 31.3 ppm foliar application 24 hr before inoculation onto the abaxial(treated) surface of leaf by preventive manner
Podosphaera fuliginea [38] = assay: Fungicidal activity against Podosphaera fuliginea assessed as cucumber powdery mildew control at 2 ppm foliar application 24 hr before inoculation by preventive manner
[39] = tested on: Pseudoperonospora cubensis; assay: Fungicidal activity against Pseudoperonospora cubensis assessed as cucumber downy mildew disease control at 7.8 ppm foliar application 24 hr after inoculation by curative manner
Blumeria graminis [40] = assay: Fungicidal activity against Blumeria graminis f. sp. tritici assessed as wheat powdery mildew disease control at 7.8 ppm foliar application for 24 hr after inoculation by curative manner
[41] = tested on: Pseudoperonospora cubensis; assay: Fungicidal activity against Pseudoperonospora cubensis assessed as cucumber downy mildew disease control at 31.3 ppm foliar application 24 hr before inoculation onto the adaxial(treated) surface of leaf by preventive manner
Podosphaera fuliginea [42] = assay: Fungicidal activity against Podosphaera fuliginea assessed as cucumber powdery mildew control at 7.8 ppm foliar application 24 hr after inoculation by curative manner
[43] = tested on: Pseudoperonospora cubensis; assay: Fungicidal activity against Pseudoperonospora cubensis assessed as cucumber downy mildew disease control at 2 ppm foliar application 24 hr before inoculation onto the abaxial(treated) surface of leaf by preventive manner
[44] = tested on: Pseudoperonospora cubensis; assay: Fungicidal activity against Pseudoperonospora cubensis assessed as cucumber downy mildew disease control at 7.8 ppm foliar application 24 hr before inoculation onto the adaxial(treated) surface of leaf by preventive manner
Thanatephorus cucumeris [45] = assay: Fungicidal activity against Thanatephorus cucumeris assessed as rice sheath blight disease control at 125 ppm foliar application for 24 hr after inoculation by curative manner
Thanatephorus cucumeris [46] = assay: Fungicidal activity against Thanatephorus cucumeris assessed as rice sheath blight disease control at 2 ppm foliar application for 24 hr after inoculation by curative manner
Blumeria graminis [47] = assay: Fungicidal activity against Blumeria graminis f. sp. tritici assessed as wheat powdery mildew disease control at 2 ppm foliar application for 24 hr after inoculation by curative manner
Blumeria graminis [48] = assay: Fungicidal activity against Blumeria graminis f. sp. tritici assessed as wheat powdery mildew disease control at 31.3 ppm foliar application for 24 hr after inoculation by curative manner
Thanatephorus cucumeris [49] = assay: Fungicidal activity against Thanatephorus cucumeris assessed as rice sheath blight disease control at 125 ppm foliar application for 24 hr before inoculation by preventive manner
[50] = tested on: Pseudoperonospora cubensis; assay: Fungicidal activity against Pseudoperonospora cubensis assessed as cucumber downy mildew disease control at 125 ppm foliar application 24 hr after inoculation by curative manner
[51] = tested on: Pseudoperonospora cubensis; assay: Fungicidal activity against Pseudoperonospora cubensis assessed as cucumber downy mildew disease control at 7.8 ppm foliar application 24 hr before inoculation onto the abaxial(treated) surface of leaf by preventive manner
Blumeria graminis [52] = assay: Fungicidal activity against Blumeria graminis f. sp. tritici assessed as wheat powdery mildew disease control at 0.5 ppm foliar application for 24 hr after inoculation by curative manner
Blumeria graminis [53] = assay: Fungicidal activity against Blumeria graminis f. sp. tritici assessed as wheat powdery mildew disease control at 0.5 ppm foliar application for 24 hr before inoculation by preventive manner

For CCNC(=O)C(OC)c1cccc(COc2cc(C)ccc2C)c1 (stereo not given), the Activity (Botrytis cinerea [1]) was 50%, the Activity (Podosphaera fuliginea [2]) was 90% and the Activity (Pyricularia oryzae [3]) was <90%.

In the case of C/C(=N/Nc1nc(C)cc(C)n1)c1ccccc1C [FERIMZONE], the Activity (Pyricularia oryzae [4]) is reported as 30%, the Activity (Pyricularia oryzae [5]) is reported as 90% and the Activity (Pyricularia oryzae [6]) is reported as 97%. The Activity (Pyricularia oryzae [7]) was 50%.

For CC(C)NC(=O)N1CC(=O)N(c2cc(Cl)cc(Cl)c2)C1=O [IPRODIONE], the Activity (Botrytis cinerea [8]) was 50%, the Activity (Botrytis cinerea [9]) was 70% and the Activity (Botrytis cinerea [10]) was 20%. For the same compound, the Activity (Botrytis cinerea [11]) was 100%, the Activity (Botrytis cinerea [12]) was 80% and the Activity (Botrytis cinerea [13]) was 60%. It also gave an Activity (Botrytis cinerea [14]) of 20% and an Activity (Botrytis cinerea [15]) of 100%.

Work on CO/N=C(/C(=O)OC)c1ccccc1COc1ccccc1C [KRESOXIM-METHYL] yielded an Activity [16] of 30%, an Activity (Blumeria graminis [17]) of 50% and an Activity (Thanatephorus cucumeris [18]) of 30%. For the same compound, the Activity (Pyricularia oryzae [4]) was 30%, the Activity [19] was 0% and the Activity (Podosphaera fuliginea [20]) was 50%. For the same compound, the Activity (Blumeria graminis [21]) was 90%, the Activity (Botrytis cinerea [8]) was 50% and the Activity (Blumeria graminis [22]) was 30%. The Activity (Botrytis cinerea [9]) was 10%, the Activity (Blumeria graminis [23]) was 70% and the Activity (Pyricularia oryzae [5]) was 70%. It also gave an Activity (Podosphaera fuliginea [24]) of 0%, an Activity (Botrytis cinerea [10]) of 20% and an Activity [25] of 97%. For the same compound, the Activity [26] was 0%, the Activity (Thanatephorus cucumeris [27]) was 30% and the Activity (Pyricularia oryzae [6]) was 97%. The Activity (Thanatephorus cucumeris [28]) was 30%, the Activity (Podosphaera fuliginea [29]) was 97% and the Activity (Botrytis cinerea [11]) was 50%. The Activity (Podosphaera fuliginea [30]) was 20%, the Activity (Botrytis cinerea [12]) was 30% and the Activity (Thanatephorus cucumeris [31]) was 0%. It also gave an Activity (Thanatephorus cucumeris [32]) of 30%, an Activity (Podosphaera fuliginea [33]) of 90% and an Activity (Pyricularia oryzae [7]) of 50%. For the same compound, the Activity [34] was 97%, the Activity (Blumeria graminis [35]) was 90% and the Activity (Podosphaera fuliginea [36]) was 80%. It also gave an Activity [37] of 0%, an Activity (Podosphaera fuliginea [38]) of 80% and an Activity (Botrytis cinerea [13]) of 0%. It also gave an Activity [39] of 0%, an Activity (Botrytis cinerea [14]) of 0% and an Activity (Blumeria graminis [40]) of 70%. For the same compound, the Activity [41] was 97%, the Activity (Podosphaera fuliginea [42]) was 100% and the Activity [43] was 0%. The Activity [44] was 97%, the Activity (Botrytis cinerea [15]) was 50% and the Activity (Thanatephorus cucumeris [45]) was 50%. The Activity (Thanatephorus cucumeris [46]) was 0%, the Activity (Blumeria graminis [47]) was 50% and the Activity (Blumeria graminis [48]) was 90%. For the same compound, the Activity (Thanatephorus cucumeris [49]) was 50%, the Activity [50] was 30% and the Activity [51] was 0%.

CC(C)(C)C(=O)C(Oc1ccc(Cl)cc1)n1cncn1 (stereo not given) [TRIADIMEFON] showed an Activity (Blumeria graminis [17]) of 97%, an Activity (Blumeria graminis [22]) of 50% and an Activity (Blumeria graminis [23]) of 97%. For the same compound, the Activity (Blumeria graminis [52]) was 50%, the Activity (Blumeria graminis [40]) was 90% and the Activity (Blumeria graminis [53]) was 30%. It also gave an Activity (Blumeria graminis [47]) of 90%.
